Data from ChEMBL document CHEMBL4330071 (Eur J Med Chem, 2019).

How the values were obtained:
[1] = molecular target: Calcium/calmodulin-dependent protein kinase type 1 (Homo sapiens) (UniProt Q14012); assay: Inhibition of human CAMK1A assessed as residual activity at 10 uM using KKALRRQETVDAL as substrate preincubated for 20 mins followed by [gamma-33P]-ATP addition and measured after 120 mins by Hotspot assay relative to control
[2] = molecular target: CDC7/DBF4 (Cell division cycle 7-related protein kinase/Activator of S phase kinase) (Homo sapiens) (UniProt Q9UBU7+O00311); assay: Inhibition of human CDC7/DBF4 assessed as residual activity at 10 uM using KTFCGTPEYLAPEVRREPRILSEEEQEMFRDFDYIADWC as substrate preincubated for 20 mins followed by [gamma-33P]-ATP addition and measured after 120 mins by Hotspot assay relative to control; assay type: protein-complex assay
[3] = molecular target: CDK6/cyclin D1 (Homo sapiens) (UniProt P24385+Q00534); assay: Inhibition of human CDK6/cyclin-D1 assessed as residual activity at 10 uM using RB protein as substrate preincubated for 20 mins followed by [gamma-33P]-ATP addition and measured after 120 mins by Hotspot assay relative to control; assay type: protein-complex assay
[4] = molecular target: Cyclin-dependent kinase 7/ cyclin H (Homo sapiens) (UniProt P51946+P50613); assay: Inhibition of human CDK7/cyclin-H assessed as residual activity at 10 uM using MBP as substrate preincubated for 20 mins followed by [gamma-33P]-ATP addition and measured after 120 mins by Hotspot assay relative to control; assay type: protein-complex assay
[5] = molecular target: T1, Mast/stem cell growth factor receptor Kit (Homo sapiens, UniProt P10721); assay: Inhibition of human c-KIT assessed as residual activity at 10 uM using poly[Glu:Tyr] (4:1) as substrate preincubated for 20 mins followed by [gamma-33P]-ATP addition and measured after 120 mins by Hotspot assay relative to control
T1 sequence (P10721 whole entry, the tested form may be a part): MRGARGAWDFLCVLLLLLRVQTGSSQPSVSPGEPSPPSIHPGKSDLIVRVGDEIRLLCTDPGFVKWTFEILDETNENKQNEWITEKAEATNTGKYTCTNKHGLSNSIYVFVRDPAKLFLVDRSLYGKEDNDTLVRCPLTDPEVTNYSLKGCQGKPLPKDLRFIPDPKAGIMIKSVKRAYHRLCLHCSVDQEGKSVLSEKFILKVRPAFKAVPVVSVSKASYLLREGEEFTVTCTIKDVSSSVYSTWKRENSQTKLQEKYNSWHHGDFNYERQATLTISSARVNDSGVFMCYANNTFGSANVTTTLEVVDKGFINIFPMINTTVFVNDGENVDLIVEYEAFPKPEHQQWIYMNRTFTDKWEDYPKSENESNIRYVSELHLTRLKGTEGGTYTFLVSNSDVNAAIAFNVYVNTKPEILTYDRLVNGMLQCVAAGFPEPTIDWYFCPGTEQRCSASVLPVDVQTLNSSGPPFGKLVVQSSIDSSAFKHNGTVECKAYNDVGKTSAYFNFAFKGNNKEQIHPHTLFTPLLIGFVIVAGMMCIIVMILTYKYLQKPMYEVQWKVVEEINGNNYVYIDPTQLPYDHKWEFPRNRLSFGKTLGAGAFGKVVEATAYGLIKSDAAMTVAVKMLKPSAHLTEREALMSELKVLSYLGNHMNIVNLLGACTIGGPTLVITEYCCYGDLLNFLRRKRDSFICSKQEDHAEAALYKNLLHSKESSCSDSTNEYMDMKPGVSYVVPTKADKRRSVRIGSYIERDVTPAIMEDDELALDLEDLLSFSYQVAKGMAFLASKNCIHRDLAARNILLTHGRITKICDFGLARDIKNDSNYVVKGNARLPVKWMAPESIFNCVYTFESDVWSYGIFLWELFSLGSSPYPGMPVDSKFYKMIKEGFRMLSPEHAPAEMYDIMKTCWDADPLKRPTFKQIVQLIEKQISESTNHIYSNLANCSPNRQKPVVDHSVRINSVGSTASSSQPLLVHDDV

[6] = molecular target: Discoidin domain-containing receptor 2 (Homo sapiens) (UniProt Q16832); assay: Inhibition of human DDR2 assessed as residual activity at 10 uM using KKSRGDYMTMQIG as substrate preincubated for 20 mins followed by [gamma-33P]-ATP addition and measured after 120 mins by Hotspot assay relative to control
Discoidin domain-containing receptor 2 (Homo sapiens), sequence (Q16832 whole entry, the tested form may be a part): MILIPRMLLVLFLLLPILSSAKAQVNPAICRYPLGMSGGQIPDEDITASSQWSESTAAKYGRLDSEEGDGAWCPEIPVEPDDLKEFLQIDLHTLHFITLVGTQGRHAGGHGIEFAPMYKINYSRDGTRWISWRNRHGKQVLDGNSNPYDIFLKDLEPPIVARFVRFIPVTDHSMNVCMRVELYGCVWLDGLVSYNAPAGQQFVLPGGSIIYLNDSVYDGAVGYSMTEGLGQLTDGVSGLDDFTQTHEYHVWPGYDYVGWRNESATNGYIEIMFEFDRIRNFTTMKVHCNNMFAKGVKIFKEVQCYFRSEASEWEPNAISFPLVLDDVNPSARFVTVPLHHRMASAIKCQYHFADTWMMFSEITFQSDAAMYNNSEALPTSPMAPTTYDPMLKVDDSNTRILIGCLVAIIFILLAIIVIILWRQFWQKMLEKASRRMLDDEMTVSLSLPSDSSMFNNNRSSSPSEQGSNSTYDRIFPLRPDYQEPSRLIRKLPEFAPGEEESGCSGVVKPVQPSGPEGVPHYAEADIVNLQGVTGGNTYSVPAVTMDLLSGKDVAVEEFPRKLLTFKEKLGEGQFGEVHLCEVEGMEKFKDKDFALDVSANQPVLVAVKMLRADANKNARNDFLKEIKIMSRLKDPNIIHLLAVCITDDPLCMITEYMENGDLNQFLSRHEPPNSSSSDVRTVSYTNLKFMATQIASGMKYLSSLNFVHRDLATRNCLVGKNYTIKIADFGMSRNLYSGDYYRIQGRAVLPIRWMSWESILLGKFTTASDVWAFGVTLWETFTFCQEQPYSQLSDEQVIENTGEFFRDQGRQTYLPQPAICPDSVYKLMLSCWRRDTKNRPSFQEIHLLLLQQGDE

[7] = molecular target: Epidermal growth factor receptor (Homo sapiens) (UniProt P00533); assay: Inhibition of human EGFR assessed as residual activity at 10 uM using poly[Glu:Tyr] (4:1) as substrate preincubated for 20 mins followed by [gamma-33P]-ATP addition and measured after 120 mins by Hotspot assay relative to control
Epidermal growth factor receptor (Homo sapiens), sequence (P00533 whole entry): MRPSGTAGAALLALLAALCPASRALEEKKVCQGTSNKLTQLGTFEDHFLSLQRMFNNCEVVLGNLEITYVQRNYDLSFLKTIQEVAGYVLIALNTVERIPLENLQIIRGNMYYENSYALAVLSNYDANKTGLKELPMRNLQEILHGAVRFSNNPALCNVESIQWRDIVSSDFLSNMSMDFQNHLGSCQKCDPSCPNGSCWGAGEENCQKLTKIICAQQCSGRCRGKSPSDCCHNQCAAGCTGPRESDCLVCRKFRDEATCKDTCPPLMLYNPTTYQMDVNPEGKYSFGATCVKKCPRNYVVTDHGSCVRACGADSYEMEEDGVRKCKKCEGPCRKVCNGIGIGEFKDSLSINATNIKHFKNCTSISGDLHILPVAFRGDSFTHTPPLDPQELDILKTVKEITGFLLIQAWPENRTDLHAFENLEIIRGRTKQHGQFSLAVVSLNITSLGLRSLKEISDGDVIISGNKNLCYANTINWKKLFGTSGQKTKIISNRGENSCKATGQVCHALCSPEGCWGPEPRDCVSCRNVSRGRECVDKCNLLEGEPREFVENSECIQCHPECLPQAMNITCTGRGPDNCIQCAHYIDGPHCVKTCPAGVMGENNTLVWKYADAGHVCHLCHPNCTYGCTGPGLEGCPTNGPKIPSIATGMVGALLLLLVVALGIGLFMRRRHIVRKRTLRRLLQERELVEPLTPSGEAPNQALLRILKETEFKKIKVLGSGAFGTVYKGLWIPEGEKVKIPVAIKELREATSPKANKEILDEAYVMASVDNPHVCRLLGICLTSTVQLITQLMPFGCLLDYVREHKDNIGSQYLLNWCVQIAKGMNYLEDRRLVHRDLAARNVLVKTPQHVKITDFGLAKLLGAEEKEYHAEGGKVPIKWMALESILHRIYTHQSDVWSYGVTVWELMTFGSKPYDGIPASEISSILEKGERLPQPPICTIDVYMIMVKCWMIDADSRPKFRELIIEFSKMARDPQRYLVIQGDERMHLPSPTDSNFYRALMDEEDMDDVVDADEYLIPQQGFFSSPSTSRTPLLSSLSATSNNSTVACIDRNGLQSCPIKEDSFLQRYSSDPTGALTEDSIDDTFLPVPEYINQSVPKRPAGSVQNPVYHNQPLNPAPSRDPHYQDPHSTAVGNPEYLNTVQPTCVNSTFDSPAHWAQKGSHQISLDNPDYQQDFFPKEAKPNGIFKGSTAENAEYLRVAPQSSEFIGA

[8] = molecular target: Tyrosine-protein kinase JAK2 (Homo sapiens) (UniProt O60674); assay: Inhibition of human JAK2 assessed as residual activity at 10 uM using poly[Glu:Tyr] (4:1) as substrate preincubated for 20 mins followed by [gamma-33P]-ATP addition and measured after 120 mins by Hotspot assay relative to control
[9] = molecular target: Mitogen-activated protein kinase kinase kinase 1 (Homo sapiens) (UniProt Q13233); assay: Inhibition of human MEKK1 assessed as residual activity at 10 uM using MBP as substrate preincubated for 20 mins followed by [gamma-33P]-ATP addition and measured after 120 mins by Hotspot assay relative to control
[10] = molecular target: Serine/threonine-protein kinase pim-1 (Homo sapiens) (UniProt P11309); assay: Inhibition of human PIM1 assessed as residual activity at 10 uM using KKRNRTLTK as substrate preincubated for 20 mins followed by [gamma-33P]-ATP addition and measured after 120 mins by Hotspot assay relative to control
Serine/threonine-protein kinase pim-1 (Homo sapiens), sequence (P11309 whole entry, looked up, the tested form may be a part): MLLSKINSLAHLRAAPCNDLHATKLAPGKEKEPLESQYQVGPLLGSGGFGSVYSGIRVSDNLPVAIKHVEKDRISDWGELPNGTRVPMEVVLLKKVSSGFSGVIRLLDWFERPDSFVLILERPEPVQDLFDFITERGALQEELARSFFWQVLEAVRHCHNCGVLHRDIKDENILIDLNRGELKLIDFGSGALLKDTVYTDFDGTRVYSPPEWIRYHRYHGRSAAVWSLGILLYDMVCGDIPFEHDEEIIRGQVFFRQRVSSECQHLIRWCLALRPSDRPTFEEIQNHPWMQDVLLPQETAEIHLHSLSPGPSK

[11] = molecular target: Tyrosine-protein kinase ABL1 (Homo sapiens, UniProt P00519, F317L); assay: Binding affinity to human phosphorylated ABL1 F317L mutant (S229 to K512 residues) expressed in mammalian expression system after 60 mins by Kinomescan method
[12] = molecular target: T1, Mast/stem cell growth factor receptor Kit; assay: Binding affinity to wild-type human partial length autoinhibited KIT (Y545 to D952 residues) expressed in mammalian expression system after 60 mins by Kinomescan method
[13] = molecular target: Tyrosine-protein kinase Lck (Homo sapiens, UniProt P06239); assay: Inhibition of human LCK using poly[Glu:Tyr] (4:1) as substrate preincubated for 20 mins followed by [gamma-33P]-ATP addition and measured after 120 mins by Hotspot assay
[14] = molecular target: Tyrosine-protein kinase BTK (Homo sapiens, UniProt Q06187); assay: Inhibition of human BTK using KVEKIGEGTYGVVYK as substrate preincubated for 20 mins followed by [gamma-33P]-ATP addition and measured after 120 mins by Hotspot assay
Tyrosine-protein kinase BTK, sequence (Q06187 whole entry): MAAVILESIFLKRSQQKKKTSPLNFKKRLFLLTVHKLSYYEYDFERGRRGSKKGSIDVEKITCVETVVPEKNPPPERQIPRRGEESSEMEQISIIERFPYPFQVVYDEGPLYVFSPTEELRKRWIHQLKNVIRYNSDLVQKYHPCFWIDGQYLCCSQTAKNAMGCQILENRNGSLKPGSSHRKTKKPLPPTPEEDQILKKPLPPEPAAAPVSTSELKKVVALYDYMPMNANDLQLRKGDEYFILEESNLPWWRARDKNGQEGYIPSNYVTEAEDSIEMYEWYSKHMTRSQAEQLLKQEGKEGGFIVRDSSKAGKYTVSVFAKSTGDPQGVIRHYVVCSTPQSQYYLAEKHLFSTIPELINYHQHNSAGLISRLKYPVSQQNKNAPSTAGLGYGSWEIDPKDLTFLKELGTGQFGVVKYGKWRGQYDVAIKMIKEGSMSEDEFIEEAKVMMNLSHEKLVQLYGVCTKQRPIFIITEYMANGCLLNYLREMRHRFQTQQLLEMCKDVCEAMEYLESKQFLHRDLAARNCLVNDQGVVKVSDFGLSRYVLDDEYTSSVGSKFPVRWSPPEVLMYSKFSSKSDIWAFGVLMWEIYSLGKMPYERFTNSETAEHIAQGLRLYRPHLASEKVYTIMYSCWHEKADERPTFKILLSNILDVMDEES

[15] = molecular target: CDK6/cyclin D1 (Homo sapiens, UniProt Q00534); assay: Inhibition of human CDK6/cyclin-D1 using RB protein as substrate preincubated for 20 mins followed by [gamma-33P]-ATP addition and measured after 120 mins by Hotspot assay; assay type: protein-complex assay
CDK6/cyclin D1, sequence (P24385 whole entry): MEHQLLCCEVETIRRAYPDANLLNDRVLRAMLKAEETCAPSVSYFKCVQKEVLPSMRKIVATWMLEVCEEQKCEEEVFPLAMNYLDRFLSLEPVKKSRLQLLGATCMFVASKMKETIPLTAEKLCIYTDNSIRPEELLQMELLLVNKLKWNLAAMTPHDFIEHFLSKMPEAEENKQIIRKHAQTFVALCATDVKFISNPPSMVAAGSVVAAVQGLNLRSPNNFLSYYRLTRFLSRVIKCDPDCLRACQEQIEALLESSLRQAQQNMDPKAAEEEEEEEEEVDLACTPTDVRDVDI
CDK6/cyclin D1, sequence (Q00534 whole entry): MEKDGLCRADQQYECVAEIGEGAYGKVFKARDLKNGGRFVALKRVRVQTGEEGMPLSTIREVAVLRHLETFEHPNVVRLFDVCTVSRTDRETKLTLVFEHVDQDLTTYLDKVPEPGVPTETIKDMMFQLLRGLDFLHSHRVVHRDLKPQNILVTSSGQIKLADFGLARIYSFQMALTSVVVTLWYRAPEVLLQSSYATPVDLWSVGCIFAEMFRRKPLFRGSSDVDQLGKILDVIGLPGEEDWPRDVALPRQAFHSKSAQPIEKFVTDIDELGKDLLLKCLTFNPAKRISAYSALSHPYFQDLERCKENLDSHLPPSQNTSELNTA

[16] = molecular target: ALK tyrosine kinase receptor (Homo sapiens, UniProt Q9UM73); assay: Inhibition of human ALK using poly[Glu:Tyr] (4:1) as substrate preincubated for 20 mins followed by [gamma-33P]-ATP addition and measured after 120 mins by Hotspot assay
[17] = molecular target: Vascular endothelial growth factor receptor 2 (Homo sapiens, UniProt P35968); assay: Inhibition of human KDR using poly[Glu:Tyr] (4:1) as substrate preincubated for 20 mins followed by [gamma-33P]-ATP addition and measured after 120 mins by Hotspot assay
[18] = molecular target: Cyclin-dependent kinase 4/cyclin D1 (Homo sapiens, UniProt P11802); assay: Inhibition of human CDK4/cyclin-D1 using RB protein as substrate preincubated for 20 mins followed by [gamma-33P]-ATP addition and measured after 120 mins by Hotspot assay; assay type: protein-complex assay
Cyclin-dependent kinase 4/cyclin D1, sequence (P11802 whole entry): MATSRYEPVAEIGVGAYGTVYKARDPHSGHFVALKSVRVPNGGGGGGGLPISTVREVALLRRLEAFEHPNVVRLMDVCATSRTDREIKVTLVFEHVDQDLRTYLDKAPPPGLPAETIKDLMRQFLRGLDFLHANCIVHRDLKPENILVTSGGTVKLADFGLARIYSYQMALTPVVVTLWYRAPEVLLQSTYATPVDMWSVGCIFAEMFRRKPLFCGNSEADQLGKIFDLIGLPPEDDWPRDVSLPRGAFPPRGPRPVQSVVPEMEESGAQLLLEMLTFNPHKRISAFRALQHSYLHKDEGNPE
Cyclin-dependent kinase 4/cyclin D1, sequence (P24385 whole entry, further chain): as the sequence (P24385 whole entry) above

[19] = system: HL-60; assay: Growth inhibition of human HL60 cells harboring WT FLT3 at 10 uM after 72 hrs by CellTiter-Glo assay relative to control; assay type: functional; settings: HL-60, 72 h, read-out: GI
[20] = system: SMMC-7721; assay: Growth inhibition of human SMMC7721 cells at 10 uM after 72 hrs by CellTiter-Glo assay relative to control; assay type: functional; settings: SMMC-7721, 72 h, read-out: GI
[21] = system: PBMC; assay: Cytotoxicity against human PBMC at 1 uM after 72 hrs by MTT assay; assay type: cell-based
[22] = system: MV4-11; assay: Induction of apoptosis in human MV4-11 cells assessed as necrotic cells at 0.2 uM after 24 hrs by Annexin V-FITC/propidium iodide staining based flow cytometric analysis (reference value: 0%); assay type: functional
[23] = system: MV4-11; assay: Induction of apoptosis in human MV4-11 cells assessed as viable cells at 0.2 uM after 24 hrs by Annexin V-FITC/propidium iodide staining based flow cytometric analysis (reference value: 95.19%); assay type: functional; settings: MV4-11, 24 h, read-out: Activity
[24] = system: MV4-11; assay: Induction of apoptosis in human MV4-11 cells assessed as viable cells at 1 uM after 24 hrs by Annexin V-FITC/propidium iodide staining based flow cytometric analysis (reference value: 95.19%); assay type: functional; settings: MV4-11, 24 h, read-out: Activity
[25] = Intrinsic clearance in rat liver microsomes assessed per mg protein at 1 uM after 5 to 60 mins in presence of NADPH by LC-MS/MS analysis; assay type: ADME, Microsome; settings: read-out: CLH

CN1CCC(Nc2ccc(C(=O)Nc3cc(-c4cc(C#N)cs4)n[nH]3)cc2)CC1
Activity [1]: 48.5%
Activity [2]: 101%
Activity [3]: 20.1%
Activity [4]: 27.1%
Activity [5]: 14.4%
Activity [6]: 20.6%
Activity [7]: 65.5%
Activity [8]: 80.7%
Activity [9]: 66.2%
Activity [10]: 5.11%
Kd [11]: 460 nM
Kd [12]: 72 nM
IC50 [13]: 1010 nM
IC50 ([14]; read-out: IC50): 1640 nM
IC50 ([14]; read-out: pIC50 (converted)): 1580 nM
IC50 [15]: 3.06 µM
IC50 [16]: 5.14 µM
IC50 [17]: 6.26 µM
IC50 ([18]; read-out: IC50): > 10 µM
IC50 ([18]; read-out: pIC50 (converted)): 10 µM
inhibition of growth at 10 µM [19]: 10.2%
inhibition of growth at 10 µM [20]: 1.47%
Activity [21]: Non-Toxic
Activity [22]: 4.1%
viability at 0.2 µM [23]: 48.8%
viability at 1 µM [24]: 34.5%
microsomal CLint at 1 µM [25]: 171 µL/min/mg
